Measurements from PubChem BioAssay AID330 (DTP/NCI, 2004).
“And” between values parts separate entries of the source, which are not always exact repeats. Equal entries are not always repeated. Inconclusive results and toxic doses are left out. How the source made its calls: active means survival T/C of 150% or more; inactive means T/C below 125% in these data.

Tested on: P388 leukemia ip, CD2F1 mice, survival T/C
Assay: NCI In Vivo Anticancer Drug Screen. Data for tumor model P388 Leukemia (intraperitoneal) in CD2F1 (CDF1) mice
Settings: endpoint: median survival time, higher = longer survival
Procedure, shortened: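 Mice carrying the transplanted tumor received test compound or vehicle. Survival was recorded in each group, and the value is the treated-group measurement divided by that of the vehicle-treated control group.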

[1] = dose: 100.0 mg/kg/injection, schedule: Q01DX009 (ip), vehicle: saline with Tween-80
[2] = dose: 200.0 mg/kg/injection, schedule: Q01DX009 (ip), vehicle: saline with Tween-80
[3] = dose: 400.0 mg/kg/injection, schedule: Q01DX009 (ip), vehicle: saline with Tween-80
[4] = dose: 50.0 mg/kg/injection, schedule: Q01DX009 (ip), vehicle: Klucel (hydroxypropylcellulose) (HPC)
[5] = dose: 100.0 mg/kg/injection, schedule: Q01DX009 (ip), vehicle: Klucel (hydroxypropylcellulose) (HPC)
[6] = dose: 200.0 mg/kg/injection, schedule: Q01DX009 (ip), vehicle: Klucel (hydroxypropylcellulose) (HPC)
[7] = dose: 100.0 mg/kg/injection, schedule: Q01DX001 (ip), vehicle: Klucel (hydroxypropylcellulose) (HPC)
[8] = dose: 200.0 mg/kg/injection, schedule: Q01DX001 (ip), vehicle: Klucel (hydroxypropylcellulose) (HPC)
[9] = dose: 50.0 mg/kg/injection, schedule: Q01DX005 (ip), vehicle: Klucel (hydroxypropylcellulose) (HPC)
[10] = dose: 200.0 mg/kg/injection, schedule: Q01DX005 (ip), vehicle: Klucel (hydroxypropylcellulose) (HPC)
[11] = dose: 50.0 mg/kg/injection, schedule: Q01DX009 (ip), vehicle: saline
[12] = dose: 100.0 mg/kg/injection, schedule: Q01DX009 (ip), vehicle: saline
[13] = dose: 200.0 mg/kg/injection, schedule: Q01DX009 (ip), vehicle: saline
[14] = dose: 100.0 mg/kg/injection, schedule: Q01DX005 (ip), vehicle: Klucel (hydroxypropylcellulose) (HPC)
[15] = dose: 100.0 mg/kg/injection, schedule: Q04DX003 (ip), vehicle: saline with Tween-80

Measured: T/C

CCOC(=O)c1cc(=O)n(C)c2ccc(OCC)cc12
inactive: [1] 90 % of control | [2] 95 % of control | [3] 90 % of control

NC(CSC(c1ccccc1)(c1ccccc1)c1ccccc1)C(=O)NCC(=O)O (stereo unspecified)
inactive: dose: 600.0 mg/kg/injection, schedule: Q01DX009 (ip), vehicle: saline with Tween-80 122 % of control

CNC(=O)c1n[nH]c(C)c1N
inactive: dose: 12.5 mg/kg/injection, schedule: Q04DX003 (ip), vehicle: water 94 % of control | dose: 25.0 mg/kg/injection, schedule: Q04DX003 (ip), vehicle: water 100 % of control | dose: 50.0 mg/kg/injection, schedule: Q04DX003 (ip), vehicle: water 103 % of control | dose: 100.0 mg/kg/injection, schedule: Q04DX003 (ip), vehicle: water 103 % of control | dose: 200.0 mg/kg/injection, schedule: Q04DX003 (ip), vehicle: water 99 % of control

O=CNNC(=O)C(Cl)Cl
inactive: [4] 107 % of control | [5] 107 % of control | [6] 112 % of control

Cc1ccccc1N=Nc1ccc(N(CCCl)CCCl)cc1
inactive: dose: 50.0 mg/kg/injection, schedule: Q01DX001 (ip), vehicle: Klucel (hydroxypropylcellulose) (HPC) 100 % of control | [7] 115 % of control | [8] 100 % of control

CCCCc1ccc2nc(C)cc(N/N=C/c3ccc(OC)c4ccccc34)c2c1
inactive: dose: 12.5 mg/kg/injection, schedule: Q01DX005 (ip), vehicle: Klucel (hydroxypropylcellulose) (HPC) 100 % of control | dose: 25.0 mg/kg/injection, schedule: Q01DX005 (ip), vehicle: Klucel (hydroxypropylcellulose) (HPC) 98 % of control | [9] 87 % of control | [10] 100 % of control

CC(=O)Oc1cccnc1
inactive: dose: 50.0 mg/kg/injection, schedule: Q01DX006 (ip), vehicle: saline 106 % of control | [11] 100 % of control | dose: 100.0 mg/kg/injection, schedule: Q01DX006 (ip), vehicle: saline 100 % of control | [12] 96 % of control | dose: 200.0 mg/kg/injection, schedule: Q01DX006 (ip), vehicle: saline 100 % of control | [13] 95 % of control | dose: 400.0 mg/kg/injection, schedule: Q01DX006 (ip), vehicle: saline 100 % of control | dose: 400.0 mg/kg/injection, schedule: Q01DX009 (ip), vehicle: saline 95 % of control | dose: 600.0 mg/kg/injection, schedule: Q01DX006 (ip), vehicle: saline 100 % of control | dose: 600.0 mg/kg/injection, schedule: Q01DX009 (ip), vehicle: saline 94 % of control | dose: 800.0 mg/kg/injection, schedule: Q01DX006 (ip), vehicle: saline 99 % of control | dose: 800.0 mg/kg/injection, schedule: Q01DX009 (ip), vehicle: saline 95 % of control

COC(=O)C1=CO[C@@H](OC2OC(CO)C(O)C(O)C2O)[C@H]2[C@@H](C)[C@@H](O)[C@@H](O)[C@@H]12 (stereo partly specified)
inactive: dose: 5.25 mg/kg/injection, schedule: Q01DX005 (ip), vehicle: Klucel (hydroxypropylcellulose) (HPC) 100 % of control | dose: 10.5 mg/kg/injection, schedule: Q01DX005 (ip), vehicle: Klucel (hydroxypropylcellulose) (HPC) 95 % of control | dose: 21.0 mg/kg/injection, schedule: Q01DX005 (ip), vehicle: Klucel (hydroxypropylcellulose) (HPC) 104 % of control | dose: 42.0 mg/kg/injection, schedule: Q01DX005 (ip), vehicle: Klucel (hydroxypropylcellulose) (HPC) 99 % of control

O=NNc1ccnc(-c2cc(NN=O)ccn2)c1
inactive: dose: 3.12 mg/kg/injection, schedule: Q01DX009 (ip), vehicle: water 114 % of control | dose: 6.25 mg/kg/injection, schedule: Q01DX009 (ip), vehicle: water 120 % of control and 122 % of control | dose: 100.0 mg/kg/injection, schedule: Q01DX009 (ip), vehicle: water 87 % of control

O=C(Nc1c2ccccc2nc2ccccc12)c1ccc([N+](=O)[O-])cc1
inactive: [9] 94 % of control | [14] 94 % of control | [10] 100 % of control

O=C(c1ccccc1)C(O)O
inactive: dose: 25.0 mg/kg/injection, schedule: Q04DX003 (ip), vehicle: saline with Tween-80 103 % of control | dose: 50.0 mg/kg/injection, schedule: Q04DX003 (ip), vehicle: saline with Tween-80 106 % of control | [15] 106 % of control and 109 % of control

CCCC1CC2=C(C(=O)c3c(OC)cccc3C2=O)C(O)(C(F)(F)F)O1 (stereo unspecified)
inactive: [7] 103 % of control | [8] 109 % of control | dose: 400.0 mg/kg/injection, schedule: Q01DX001 (ip), vehicle: Klucel (hydroxypropylcellulose) (HPC) 94 % of control

CCN(CC)CC(O)c1c(-c2ccccc2)c(-c2ccccc2)c2n1CCC2 (stereo unspecified)
inactive: [4] 103 % of control | [5] 106 % of control | [6] 109 % of control

ClC1=C(Cl)C2(Cl)C3C4CC(C5OC45)C3C1(Cl)C2(Cl)Cl (stereo unspecified)
inactive: dose: 3.13 mg/kg/injection, schedule: Q01DX009 (ip), vehicle: saline with Tween-80 104 % of control and 97 % of control | dose: 6.25 mg/kg/injection, schedule: Q01DX009 (ip), vehicle: saline with Tween-80 90 % of control and 97 % of control | dose: 12.5 mg/kg/injection, schedule: Q01DX009 (ip), vehicle: saline with Tween-80 86 % of control

CC1(Cl)C(c2ccccc2)=[N+]([O-])[N+]([O-])=C1c1ccccc1
inactive: dose: 100.0 mg/kg/injection, schedule: Q04DX002 (ip), vehicle: saline with Tween-80 112 % of control | dose: 200.0 mg/kg/injection, schedule: Q04DX002 (ip), vehicle: saline with Tween-80 112 % of control

O=c1[nH]c2cc([N+](=O)[O-])ccc2nc1/C=C(\O)c1ccccc1
inactive: dose: 60.0 mg/kg/injection, schedule: Q01DX005 (ip), vehicle: Klucel + Tween-80 100 % of control | dose: 120.0 mg/kg/injection, schedule: Q01DX005 (ip), vehicle: Klucel + Tween-80 92 % of control | dose: 240.0 mg/kg/injection, schedule: Q01DX005 (ip), vehicle: Klucel + Tween-80 92 % of control

c1c[nH]c2c3ccncc3c3ncnc3c2c1
inactive: [9] 97 % of control | [14] 88 % of control

CC(C)CCCCCCCCCCCCC(=O)NC1C(C)OC(Nc2ncnc3nc[nH]c23)C(O)C1O (stereo unspecified)
inactive: dose: 0.5 mg/kg/injection, schedule: Q01DX009 (ip), vehicle: other 107 % of control | dose: 1.0 mg/kg/injection, schedule: Q01DX009 (ip), vehicle: other 109 % of control | dose: 2.0 mg/kg/injection, schedule: Q01DX009 (ip), vehicle: other 98 % of control | dose: 4.0 mg/kg/injection, schedule: Q01DX009 (ip), vehicle: other 106 % of control | dose: 6.25 mg/kg/injection, schedule: Q01DX009 (ip), vehicle: other 104 % of control | dose: 8.0 mg/kg/injection, schedule: Q01DX009 (ip), vehicle: other 106 % of control | dose: 12.5 mg/kg/injection, schedule: Q01DX009 (ip), vehicle: other 91 % of control | dose: 25.0 mg/kg/injection, schedule: Q01DX009 (ip), vehicle: other 88 % of control | dose: 50.0 mg/kg/injection, schedule: Q01DX009 (ip), vehicle: other 91 % of control

CCCCCCN(CCCCCC)CC(O)c1cc(-c2ccccc2)nc2cc(Cl)ccc12 (stereo unspecified)
inactive: dose: 50.0 mg/kg/injection, schedule: Q01DX005 (ip), vehicle: saline with Tween-80 115 % of control | dose: 100.0 mg/kg/injection, schedule: Q01DX005 (ip), vehicle: saline with Tween-80 103 % of control | dose: 200.0 mg/kg/injection, schedule: Q01DX005 (ip), vehicle: saline with Tween-80 113 % of control

O=C(O)c1ccc(Cc2ccc(C(=O)O)cc2)cc1 (tested in a mixture with another compound)
inactive: [11] 95 % of control | [12] 99 % of control | [13] 104 % of control

CCOC(=O)c1c(C)c(C(=O)OCC)n(C)c1C=O
inactive: [1] 97 % of control | [2] 97 % of control | [3] 96 % of control

CN1C(=O)C2SC(=NNc3ccccc3)SC1C(=O)N2C
inactive: [15] 106 % of control | dose: 200.0 mg/kg/injection, schedule: Q04DX003 (ip), vehicle: saline with Tween-80 120 % of control | dose: 400.0 mg/kg/injection, schedule: Q04DX003 (ip), vehicle: saline with Tween-80 100 % of control
